According to patent publication US6642365B1, “Anti-(retro)viral conjugates of saccharides and acetamidino or guanidino compounds” (Yeda Research and Development Co. Ltd., priority 2001, dated 2003):
“Also recorded” adds a separate entry of the source.

Experiments:
TAR RNA [1] = test: Gel-shift binding to TAR RNA; parameters: species or system HIV-1; settings: up to 50 μM
Method: The model Tat peptide (R52: […]) was prepared by the Weizmann Institute Chemical Services and was purified by reverse phase HPLC (C-18) (Lapidot et al., 1995). […] The RNA was transcriptionally labeled with α-^32P UTP, purified on a 12% polyacrylamide/7M urea gel (19:1 acrylamide:bis-acrylamide) and was eluted from the gel by 0.5M ammonium acetate, 10 mM magnesium acetate, 1 mM EDTA and 0.1% SDS. The sample was subjected to phenol extraction and the RNA was precipitated from 70% ethanol. Purified RNA was dissolved in diethyl pyrocarbonate-treated water (DEPC water), its concentration was determined by UV absorption at 260 nm and the specific radioactivity was determined by scintillation counting on a LS 1701 “Bruker” counter.
To study the affinity of the test compounds to TAR, gel-shift and gel-shift inhibition experiments were performed. The binding reaction mixtures (20 μl) contained ^32P-labeled TAR (18-44) RNA oligonucleotide (3-6 nM) and Tat R52 peptide (35-75 nM) in a binding buffer (10 mM Tris-HCl pH 7.5, 70 mM NaCl, 0.2 mM EDTA and 5% glycerol). The reaction mixtures were incubated for 10 minutes on ice and resolved by electrophoresis on a 10% non-denaturing polyacrylamide gel (40:1 acrylamide:bis-acrylamide) at 200V, for 3 h at 4° C. Gels were dried and visualized by autoradiography. Quantitations were obtained by optical densitometry of films. Alternatively, results were visualized by exposing the wet gels to Fuji phosphoimager plates, which were read on a “Storm 820” (Molecular Dynamics) phosphoimager. […]
Binding of aminoglycoside-arginine conjugates (AAC) to TAR RNA was measured by adding varying concentrations of each conjugate to reaction mixtures (20 μl) which contained 12 nM ^32P-labeled TAR RNA. The reactions were analyzed as described above.

TAR RNA [2] = test: RNase A footprinting of TAR RNA; type: binding, HIV-1
Method: In a typical experiment 10 μl of 5 mM cacodylate buffer pH 6.5, containing 25 mM KCl and 50-100 ng 5′ ^32P-labeled TAR RNA (approximately 0.5-1 μM) were incubated with 200 pM RNase A (Sigma) at room temperature for 10 minutes in the presence of Tat R52 and the conjugates of the invention at various concentrations. In the competition experiments, the mixture was supplemented with 0.5 μg yeast tRNA (Sigma). After the incubation, 10 μl of formamide/bromphenol blue loading buffer was added to the samples. The samples were heated to 80° C. for 2 min and were resolved by electrophoresis on 40 cm×0.8 mm 20% polyacrylamide denaturing gel (7M urea) for 3 hours at 55° C. The results were visualized by a phosphoimager as described above and quantitated using ImageQuant software.
TAR RNA and RNase A concentrations were established by co-titration. To produce a “single-hit” kinetics conditions, 1 μM TAR versus 200 pM RNase A were selected. Tat R52 and AAC concentrations were determined by titration. […] RNase A cleaved TAR RNA in an uneven manner (FIG. 4A., lane 2). The most susceptible regions for cleavage were the single-stranded loop, nucleotides U31-G34 as well as C24 and U25 of the bulge. Strong cleavage was also observed at G21-G41 and A20-U42 pairs (lower stem). Binding of R52 (2-4 μM) caused a weakening of the bands in the upper stem region, (G26-C39, A27-C38, as well as U40) (FIG. 4A., lanes 3, 4). At 4 μM R52, the cleavage at G34 (loop) was enhanced, as well as a certain enhancement of bands A20, G21, U23 and U25 was observed. Remarkably, the band corresponding to the R52-TAR complex still was observed on the gels even after electrophoresis under strongly denaturing conditions. In the presence of R4K (10-20 μM), the upper stem (G26-C29), the lower stem and the bulge (G21-U23, partially C24 and U25) were protected as well as C38, C39 and U40. Cleavage at C19 and A20 of the lower stem and C30, G33 and G34 of the loop was enhanced by 10 μM R4K, whereas with 20 μM R4K the protection of C30, G34 and A20-G21 was observed (FIG. 4A., lanes 5, 6). […] Cleavages at C19-A20 in the lower stem as well as at G30 and G34 in the loop were observed (FIG. 4A., lanes 7, 8). In the presence of GB4K (20 μM) no significant protection was observed.

[3] = system: equine infectious anemia virus (EIAV); test: Antiviral activity in EIAV-infected ED fibroblasts; type: cell-based; settings: 100-250 μM
Method: Both equine dermal fibroblasts (ED) and Equine Infectious Anemia Virus (EIAV), Wyoming isolate (Malmquist et al., 1973) were gifts from Profs. A. Yaniv and A. Gazit, from the Sackler Medical School of the Tel-Aviv University, Israel. ED cells were plated on plastic 6-well tissue culture plates (Nunclone) at density of […] per well in 2 ml of DMEM/10% FCS (fetal calf serum). The medium was removed after 12-20 hours and the cells were inoculated for 2 hours with 0.5 ml DMEM/10% FCS containing 5×10^6 pfu (plaque forming units) of EIAV and 10 μg/ml of polybrene (hexadimetrine bromide, Sigma) (Carpenter and Chesebro, 1989). Following the incubation, another 2.5 ml of DMEM/10% FCS was added to each well. […] Every […], 1.2 ml samples of the medium were collected and replaced with same amount of medium, containing radioactive uridine and the tested. The samples were clarified from cell debris by spinning at 12000 rpm for 5 minutes on the Eppendorf centrifuge. Viral particles from the clarified supernatants were collected by ultracentrifugation at 75000 rpm, 4° C. on the Beckman TL 100 centrifuge using TLA 100.2 rotor (Cheevers et al., 1977). The supernatants were carefully discarded and the pellet was resuspended in 200 μl of 1% SDS/5% Tritone X-100, mixed with 1 ml Ultima Gold scintillation liquid (Packard) and counted on LS 1701 Bruker scintillation counter. Typical duration of the experiment was 15 days; EIAV growth curves in the presence of various concentrations of the conjugates in the medium were obtained. Development of the cytopathic effect (cpe) in the infected ED cells was monitored by light microscopy.
Equine infectious anemia virus (EIAV) of Wyoming strain is adapted to grow in equine dermal fibroblasts (ED), without damaging them with a titer of 1 μfu per cell (Malmquist virus). […] In the absence of inhibitors, EIAV proliferated in the ED cells reaching a plato 9-12 days after infection (FIG. 8). […] Development of cpe started 10-12 days after infection, reaching a maximum on days 15-17, followed by rapid cell death and exfoliation from the plastic bottom of the well.

Tat-TAR complex = settings: cited from earlier work
HIV-1 NL4-3 [4] = test: Virus-binding assay, p24 antigen bound to MT-4 cells; type: cell-based
Method: MT4 cells (5×10^5) were incubated with supernatant containing 1×10^5 pg of p24 antigen of wild type HIV-1 in the presence of different concentrations of the test compound. One hour after infection, cells were washed 3 times with PBS and p24 antigen bound to the cells was determined by a commercial ELISA test (Coulter, Spain).

HIV-1 IIIB = test: Anti-HIV assay, syncytium formation and tetrazolium colorimetric assay; type: cell-based; settings: range over IIIb, 2D, AZT resistant, UC781 resistant and clade C HIV-1
Method: (§1) T-tropic HIV-1 laboratory strains IIIb, 2D as well as AZT-resistant and UC781-resistant strains were utilized in this study, along with clinical isolate (clade C). HIV-1 clinical isolate, resistant to AZT is a generous gift from Dr. Mark A. Wainberg, McGill AIDS Center, McGill University, Montreal, Canada.
(§2) MT-2 or MT-4 cells were cultured in RPMI 1640 supplemented with 10% fetal calf serum (FCS), 0.2 mM glutamine and penicilline/streptomycin/nistatin mixture. The cells were propagated in 96-well tissue culture plates at the density of 5×10^4 cells per well. Peripheral mononuclear blood cells (PMBC) were separated from whole blood samples by centrifugation in Ficoll gradient for 10 min at 400 g. PMBC were cultured in the same medium in 24-well tissue culture plates at the density of about 10^6 cells per well.

[5] = system: HIV-1 clinical isolate (clade C); test: as above; type: cell-based
Method: as §1, §2

HIV-1 2D = type: cell-based
Method: as §1, §2

[6] = system: MT-2 cells as well as PMBC lines ETH and IS; settings: ratio CC50/EC50
Method: (§3) The cells were infected by incubation with different titers of the HIV-1 strains for 2 hrs at 37° C. in the presence or absence of the AAC of the invention. Then the cells were washed from the virus by centrifugation at 400 g and the supernatants were discarded. The cells were resuspended in culture medium, supplemented with different concentrations of the test compounds. The cells were allowed to proliferate for 5 days, the number of viable cells was quantified by a tetrazolium-based colorimetric method (CellTiter 96® AQueous One solution Cell Proliferation Assay, Promega). Anti-HIV activity in P4-CCR5 MAGI cells was done as follows: cells (1×10^5/ml) were infected with 10 ng/ml of p24 antigen of HIV-1 Ba-L in the presence of varying concentrations of the test compound. 24 hours post infection, cells were washed twice with PBS and resuspended in the medium containing the appropriate drug concentration. Five days after infection the cells were washed with PBS and evaluated for β-galactosidase activity.

CXCR4 [7] = molecular target: T1, CXCR4 (Homo sapiens, UniProt P61073); test: Inhibition of anti-CXCR4 mAb (12G5) binding, flow cytometry, SUP-T1 cells; parameters: endogenous in cells
Method: (§4) Measurement of chemokine receptors CXCR4, CCR5 and the CD4 receptor on phytohemagglutinin (PHA)-activated PBMC was performed by flow cytometry analysis. Briefly, 0.5×10^6 cells were washed in ice-cold phosphate-buffered saline (PBS) and incubated for 30 minutes at 4÷C. with fluorescent labelled mAb 12G5 and 2D7 and Leu3a (Becton Dickinson, San Jose, Calif.) or with isotype control mAbs in the presence or absence of the test compound. Then, the cells were washed with ice-cold PBS and were fixed in PBS containing 1% formaldehyde. For each sample, 10,000 events were analysed in a FACScalibur™ system (Becton Dickinson). Data were acquired and analysed with CellQuest™ software (Becton Dickinson).

CXCR4 [8] = molecular target: T1, CXCR4; test: Inhibition of anti-CXCR4 mAb (12G5) binding, flow cytometry, PHA-activated PBMC; parameters: endogenous in cells
Method: as §4

HIV-1 NL4-3 [9] = test: Anti-HIV assay, MTT, MT-4 cells; type: cell-based
Method: The HIV-1 strains NL4-3 and Ba-L and the CD4^+lymphocytic cell lines SUP-T1, MT-4 and MT-2 and P4-CCR5 MAGI cells were obtained from the MRC AIDS reagent program or the NIH, AIDS Research and Reference Reagent Program.
as §3

[10] = system: HIV-1 NL4-3 AMD3100-resistant; type: cell-based
HIV Rev-RRE interaction = settings: at 100 μM; cited from earlier work

T1 sequence (P61073 whole entry): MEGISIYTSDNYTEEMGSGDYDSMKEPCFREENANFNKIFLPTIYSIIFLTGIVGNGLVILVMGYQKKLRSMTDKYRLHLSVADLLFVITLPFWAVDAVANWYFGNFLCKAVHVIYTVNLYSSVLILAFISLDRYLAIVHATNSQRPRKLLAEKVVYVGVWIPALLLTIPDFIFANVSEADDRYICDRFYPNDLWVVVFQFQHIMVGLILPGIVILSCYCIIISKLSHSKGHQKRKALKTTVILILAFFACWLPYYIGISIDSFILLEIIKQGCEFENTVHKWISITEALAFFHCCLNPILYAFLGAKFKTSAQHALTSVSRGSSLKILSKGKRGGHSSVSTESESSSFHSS

N=C(N)NCCCC(=O)NC[C@H]1O[C@H](O[C@H]2[C@H](O)[C@@H](O[C@H]3O[C@H](CO)[C@@H](O)[C@H](NC(=O)CCCNC(=N)N)[C@H]3O)[C@H](NC(=O)CCCNC(=N)N)C[C@@H]2NC(=O)CCCNC(=N)N)[C@H](O)[C@@H](O)[C@@H]1O [GB4K, Tetra-γ-(N-guanidino)butyramido-kanamycin A conjugate]
binding to TAR RNA in gel-shift experiments (TAR RNA [1]): did not exhibit binding | binding to TAR RNA in protection experiments (TAR RNA [2]; at 40 μM): did not exhibit binding | TAR RNA binding, overall assessment (TAR RNA [2]; footprinting studies): very weak TAR RNA binder | effect on the viral growth [3]: did not show any effect

NC[C@@H]1O[C@H](O[C@H]2[C@@H](O)[C@H](O[C@@H]3[C@@H](O)[C@H](N)C[C@H](N)[C@H]3O[C@H]3O[C@H](CN)[C@@H](O)[C@H](O)[C@H]3N)O[C@@H]2CO)[C@H](N)[C@@H](O)[C@@H]1O [Neomycin B, reference compound]
concentration range of inhibitory effect on Tat binding to TAR (Tat-TAR complex; in vitro): 1 to 100 µM

CO[C@@H]1O[C@H](CC(N)=O)C(O)[C@H](O)[C@@H]1O (stereo partly drawn) [compound 8, Methyl 6-deoxy-α-D-mannoheptopyranuronic acid amide]
melting point: 177 °C

Dextran sulfate [reference compound]
binding of HIV-1 NL4-3 to MT-4 cells (HIV-1 NL4-3 [4]; 1 hour at 37° C., dose dependent): active

Hexa/penta-argininamido-neomycin B conjugate [NeoR]
EC50 (HIV-1 IIIB): 3000 to 4000 nM | inhibition of virus growth ([5]; MT-2 cells infected in presence of 20 μM R3G or 10 μM NeoR, then 3 days without AAC): 60% | EC50 ([5]; average of two independent experiments in duplicates): 3000 nM | EC50 (HIV-1 2D): 4000 nM | antiviral effect in the presence of AZT (HIV-1 2D): additive | TI50 [6]: 60-85 | affinity for CXCR4 (CXCR4 [7]; inhibition of 12G5 binding to SUP-T1 cells or PMBC): high affinity | binding of 12G5 mAb to PHA-activated PBMC (CXCR4 [8]; 5 μM): suppressed significantly more than in the presence of 5 μM R3G; also recorded: suppressed | IC50 (CXCR4 [8]; read-out: IC50-12G5 PMBC): 2400 nM

SDF-1α
EC50 (HIV-1 NL4-3 [9]): 40 nM | EC50 ([10]; MTT assay, read-out: EC50 HIV-1 AMD 3100res): > 1000 nM | cross-resistance of NL4-3 AMD3100-resistant virus ([10]; relative to NL4-3): > 25 fold | binding of HIV-1 to MT-4 cells (HIV-1 NL4-3 [4]; 0.5 μg/ml): did not inhibit the binding | IC50 (CXCR4 [7]): 13 nM

gentamicin
inhibition of Rev-RRE interaction (HIV Rev-RRE interaction): do not display any inhibition

native Tat: HIV trans-activator of transcription protein
Kd (Tat-TAR complex; comparison value, read-out: Kd of the native Tat-TAR complex): 6 to 12 nM
